Results from patent US9833497B2, “Human originated EGF domain proteins and use of the same” (CHENGDU SOURCEBIO LIMITED-LIABILITY COMPANY, priority 2013, dated 2017).

Legend:
Assay type in all cases: cell-based
Citrobacter diversus = assay: MIC against Gram-negative bacteria: Citrobacter diversus; conditions: 5×10^5 CFU/mL
Summary of the method: (§1)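 LB broth cultures at McFarland 0.5, spun down, resuspended, diluted to 5×10^5 CFU/mL final. Two-fold serial dilutions of purified human EGF domain proteins, triplicate. 37° C, 175 rpm shaking. Endpoint: no visible growth.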

E. coli DH5α = assay: Antibacterial activity: MIC and growth curve against E. coli DH5α in 96-well plate; conditions: minimal inhibitory concentration against E. coli DH5α; 96-well plate, 5×10^5 CFU/mL, 37° C., judged after 8 h
Summary of the method: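 Log-phase bacteria (OD600 ~0.5) resuspended in LB at 5×10^5 CFU/mL, exposed to recombinant protein at 50, 25, 12.5 μg/mL final in triplicate, 37 °C shaking at 175 rpm. OD600 read every 30 min; MIC is lowest concentration showing no growth.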

E. coli BL21 = assay: MIC against Gram-negative bacteria: E. coli BL21; conditions: 5×10^5 CFU/mL
Summary of the method: as §1

Klebsiella pneumonia = assay: MIC against Gram-negative bacteria: Klebsiella pneumonia; conditions: 5×10^5 CFU/mL
Summary of the method: as §1

Pseudomonas aeruginosa = assay: MIC against Gram-negative bacteria: Pseudomonas aeruginosa; conditions: 5×10^5 CFU/mL
Summary of the method: as §1

Aeromonas hydrophila = assay: MIC against Gram-negative bacteria: Aeromonas hydrophila; conditions: 5×10^5 CFU/mL
Summary of the method: as §1

Enterobacter cloacae = assay: MIC against Gram-negative bacteria: Enterobacter cloacae; conditions: 5×10^5 CFU/mL
Summary of the method: as §1

Proteus mirabilis = assay: MIC against Gram-negative bacteria: Proteus mirabilis; conditions: 5×10^5 CFU/mL
Summary of the method: as §1

Proteus vulgaris = assay: MIC against Gram-negative bacteria: Proteus vulgaris; conditions: 5×10^5 CFU/mL
Summary of the method: as §1

Moraxella catarrhalis = assay: MIC against Gram-negative bacteria: Moraxella catarrhalis; conditions: 5×10^5 CFU/mL
Summary of the method: as §1

Serratia marcescens = assay: MIC against Gram-negative bacteria: Serratia marcescens; conditions: 5×10^5 CFU/mL
Summary of the method: as §1

[1] = Citrobacter diversus, 96-well plate, 37° C., 10 h
[2] = E. coli BL21, 96-well plate, 37° C., 10 h
[3] = Klebsiella pneumonia, 96-well plate, 37° C., 10 h
[4] = Pseudomonas aeruginosa, 96-well plate, 37° C., 10 h
[5] = Aeromonas hydrophila, 96-well plate, 37° C., 10 h
[6] = Enterobacter cloacae, 96-well plate, 37° C., 10 h
[7] = Proteus mirabilis, 96-well plate, 37° C., 10 h
[8] = Proteus vulgaris, 96-well plate, 37° C., 10 h
[9] = Moraxella catarrhalis, 96-well plate, 37° C., 10 h
[10] = Serratia marcescens, 96-well plate, 37° C., 10 h

PRT603 (CHCHPQGSKDTVCDQVTGQCPCHGEVSGRRCDRCLAGYFGFPSCHP; listed as Homo sapiens)
25 µg/mL: MIC (E. coli DH5α) | MIC P. aeruginosa (Pseudomonas aeruginosa; 96-well plate, 37° C., 10 h) | MIC E. cloacae (Enterobacter cloacae; 96-well plate, 37° C., 10 h)
12.5 µg/mL: MIC C. diversus (Citrobacter diversus; 96-well plate, 37° C., 10 h) | MIC K. pneumonia (Klebsiella pneumonia; 96-well plate, 37° C., 10 h) | MIC P. mirabilis (Proteus mirabilis; 96-well plate, 37° C., 10 h) | MIC S. marcescens (Serratia marcescens; 96-well plate, 37° C., 10 h)
50 µg/mL: MIC E. coli BL21 (E. coli BL21; 96-well plate, 37° C., 10 h) | MIC A. hydrophila (Aeromonas hydrophila; 96-well plate, 37° C., 10 h) | MIC P. vulgaris (Proteus vulgaris; 96-well plate, 37° C., 10 h) | MIC M. catarrhalis (Moraxella catarrhalis; 96-well plate, 37° C., 10 h)

PRT1207 (DIDECSDGFVQCDSRANCINLPGWYHCECRDGYHDNGMFSPSGESCE; listed as Homo sapiens)
12.5 µg/mL: MIC against C. diversus (Citrobacter diversus; [1]) | MIC (E. coli DH5α) | MIC against K. pneumonia (Klebsiella pneumonia; [3]) | MIC against P. aeruginosa (Pseudomonas aeruginosa; [4]) | MIC against P. vulgaris (Proteus vulgaris; [8]) | MIC against S. marcescens (Serratia marcescens; [10])
25 µg/mL: MIC against E. coli BL21 (E. coli BL21; [2]) | MIC against A. hydrophila (Aeromonas hydrophila; [5]) | MIC against E. cloacae (Enterobacter cloacae; [6]) | MIC against P. mirabilis (Proteus mirabilis; [7]) | MIC against M. catarrhalis (Moraxella catarrhalis; [9])

PRT740 (GLNDCMHNNGQCGQLCLAIPGGHRCGCASHYTLDPSSRNCS; listed as Homo sapiens)
25 µg/mL: MIC P. mirabilis (Proteus mirabilis; 96-well plate, 37° C., 10 h) | MIC S. marcescens (Serratia marcescens; 96-well plate, 37° C., 10 h)
50 µg/mL: MIC P. aeruginosa (Pseudomonas aeruginosa; 96-well plate, 37° C., 10 h) | MIC E. cloacae (Enterobacter cloacae; 96-well plate, 37° C., 10 h) | MIC M. catarrhalis (Moraxella catarrhalis; 96-well plate, 37° C., 10 h)
12.5 µg/mL: MIC C. diversus (Citrobacter diversus; 96-well plate, 37° C., 10 h) | MIC (E. coli DH5α) | MIC E. coli BL21 (E. coli BL21; 96-well plate, 37° C., 10 h) | MIC K. pneumonia (Klebsiella pneumonia; 96-well plate, 37° C., 10 h) | MIC A. hydrophila (Aeromonas hydrophila; 96-well plate, 37° C., 10 h) | MIC P. vulgaris (Proteus vulgaris; 96-well plate, 37° C., 10 h)

PRT698 (DVDECARSPPPCTYGRCENTEGSFQCVCPMGFQPNTAGSECE; listed as Homo sapiens)
12.5 µg/mL: MIC P. aeruginosa (Pseudomonas aeruginosa; 96-well plate, 37° C., 10 h) | MIC A. hydrophila (Aeromonas hydrophila; 96-well plate, 37° C., 10 h) | MIC S. marcescens (Serratia marcescens; 96-well plate, 37° C., 10 h)
50 µg/mL: MIC (E. coli DH5α) | MIC K. pneumonia (Klebsiella pneumonia; 96-well plate, 37° C., 10 h) | MIC M. catarrhalis (Moraxella catarrhalis; 96-well plate, 37° C., 10 h)
25 µg/mL: MIC C. diversus (Citrobacter diversus; 96-well plate, 37° C., 10 h) | MIC E. coli BL21 (E. coli BL21; 96-well plate, 37° C., 10 h) | MIC E. cloacae (Enterobacter cloacae; 96-well plate, 37° C., 10 h) | MIC P. mirabilis (Proteus mirabilis; 96-well plate, 37° C., 10 h) | MIC P. vulgaris (Proteus vulgaris; 96-well plate, 37° C., 10 h)

PRT1275 (EGMNCMNKNHGCAHICRETPKGGIACECRPGFELTKNQRDCK; listed as Homo sapiens)
12.5 µg/mL: MIC (E. coli DH5α) | MIC against P. aeruginosa (Pseudomonas aeruginosa; [4]) | MIC against E. cloacae (Enterobacter cloacae; [6]) | MIC against M. catarrhalis (Moraxella catarrhalis; [9]) | MIC against S. marcescens (Serratia marcescens; [10])
50 µg/mL: MIC against C. diversus (Citrobacter diversus; [1]) | MIC against E. coli BL21 (E. coli BL21; [2]) | MIC against K. pneumonia (Klebsiella pneumonia; [3]) | MIC against A. hydrophila (Aeromonas hydrophila; [5]) | MIC against P. mirabilis (Proteus mirabilis; [7])
25 µg/mL: MIC against P. vulgaris (Proteus vulgaris; [8])

PRT1372 (GSRRCPGDCRGHGLCEDGVCVCDAGYSGEDC; listed as Homo sapiens)
12.5 µg/mL: MIC against C. diversus (Citrobacter diversus; Citrobacter diversus, 10 h cultivation at 37° C.) | MIC (E. coli DH5α) | MIC against P. aeruginosa (Pseudomonas aeruginosa; Pseudomonas aeruginosa, 10 h cultivation at 37° C.) | MIC against E. cloacae (Enterobacter cloacae; Enterobacter cloacae, 10 h cultivation at 37° C.) | MIC against P. mirabilis (Proteus mirabilis; Proteus mirabilis, 10 h cultivation at 37° C.) | MIC against S. marcescens (Serratia marcescens; Serratia marcescens, 10 h cultivation at 37° C.)
25 µg/mL: MIC against E. coli BL21 (E. coli BL21; E. coli BL21, 10 h cultivation at 37° C.) | MIC against K. pneumonia (Klebsiella pneumonia; Klebsiella pneumonia, 10 h cultivation at 37° C.) | MIC against A. hydrophila (Aeromonas hydrophila; Aeromonas hydrophila, 10 h cultivation at 37° C.) | MIC against P. vulgaris (Proteus vulgaris; Proteus vulgaris, 10 h cultivation at 37° C.) | MIC against M. catarrhalis (Moraxella catarrhalis; Moraxella catarrhalis, 10 h cultivation at 37° C.)

PRT518 (CACPLNIPSNNFSPTCHLDRSLGLICDGCPVGYTGPRCERCAEGYFGQPSVPGGSCQP; listed as Homo sapiens)
25 µg/mL: MIC against E. coli BL21 (E. coli BL21; 96-well plate, 37° C., 10 h) | MIC against K. pneumonia (Klebsiella pneumonia; 96-well plate, 37° C., 10 h) | MIC against A. hydrophila (Aeromonas hydrophila; 96-well plate, 37° C., 10 h) | MIC against P. vulgaris (Proteus vulgaris; 96-well plate, 37° C., 10 h) | MIC against M. catarrhalis (Moraxella catarrhalis; 96-well plate, 37° C., 10 h)
50 µg/mL: MIC (E. coli DH5α) | MIC against E. cloacae (Enterobacter cloacae; 96-well plate, 37° C., 10 h)
12.5 µg/mL: MIC against C. diversus (Citrobacter diversus; 96-well plate, 37° C., 10 h) | MIC against P. aeruginosa (Pseudomonas aeruginosa; 96-well plate, 37° C., 10 h) | MIC against P. mirabilis (Proteus mirabilis; 96-well plate, 37° C., 10 h) | MIC against S. marcescens (Serratia marcescens; 96-well plate, 37° C., 10 h)
